In the assay the target is FXR (Homo sapiens (Human), UniProt Q96RI1). Briefly: FXR Agonist Assay (Gaussia luciferase reporter). To be noted: cells incubated with compound at 37° C. for 20 hours; Gaussia luciferase luminescence; 10-point dose-response in duplicate. It counts as cell-based. The method, then: Starting from 3.33 mM of compound in DMSO solution, a 10-point 3-fold serial dilution was made by diluting 5 μL of compound into 10 μL of DMSO. The serially diluted compound was then diluted 1:33 into DMEM. This medium was then diluted ten-fold into the culture medium with the cells (10 μL/well). All concentration points are assayed in duplicate. Plates were incubated at 37° C. for 20 hours. After the incubation, 20 μL of culture medium were removed from each well and mixed with 50 μL of assay solution (Pierce™ Gaussia Luciferase Flash Assay Kit). The luminescence was measured immediately after addition of the Luc substrate with an Envision microplate reader. The raw data was uploaded to CDD and dose-response curves were generated using the Levenberg-Marquardt algorithm integrated into CDD. A negative control DMSO is included on each plate and used to normalize the data with the CDD built-in normalization function.

EC50 data for 47 compounds are collected here from US10233187B2, “Fused bicyclic compounds for the treatment of disease” (AKARNA THERAPEUTICS, LTD., priority 2014, dated 2019).

Chain of FXR (Q96RI1 whole entry, species assumed): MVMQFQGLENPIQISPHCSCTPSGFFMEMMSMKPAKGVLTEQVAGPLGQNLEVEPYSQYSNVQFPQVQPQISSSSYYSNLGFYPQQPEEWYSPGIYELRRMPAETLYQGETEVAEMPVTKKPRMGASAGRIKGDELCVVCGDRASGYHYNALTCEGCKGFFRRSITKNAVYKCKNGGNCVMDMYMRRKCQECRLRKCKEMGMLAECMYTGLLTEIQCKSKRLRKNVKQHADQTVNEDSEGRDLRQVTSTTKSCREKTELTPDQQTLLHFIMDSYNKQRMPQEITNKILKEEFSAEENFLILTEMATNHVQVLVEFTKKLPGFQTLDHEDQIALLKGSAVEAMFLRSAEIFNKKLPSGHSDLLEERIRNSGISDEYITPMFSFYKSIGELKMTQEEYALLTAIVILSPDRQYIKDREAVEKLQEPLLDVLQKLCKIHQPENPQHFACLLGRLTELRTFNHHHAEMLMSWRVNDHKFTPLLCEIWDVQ

For `CC(C)OC(=O)C1=CN(C(=O)c2ccc(OCCN3CCOCC3)cc2)CC(C)(C)c2c(C(F)(F)F)n[nH]c21` [Example 13], the EC50 (as a rule, the concentration at which the effect is half-maximal) was less than 0.2 µM.
The figure for `CC(C)NC(=O)C1=CN(C(=O)c2ccc(F)c(F)c2)CC(C)(C)c2cn[nH]c21` [Example 45] is 0.2 to 1 µM; for `CC(C)NC(=O)C1=CN(C(=O)c2ccc(F)c(F)c2)CC(C)(C)c2c(C(F)(F)F)n[nH]c21` [Example 14] it is less than 0.2 µM.
The figure for `CCCc1n[nH]c2c1C(C)(C)CN(C(=O)c1ccccn1)C=C2C(=O)OC(C)C` [Example 19] is 1 to 10 µM; for `CCOC(=O)C1=CN(C(=O)c2ccc(F)c(F)c2)CC(C)(C)c2c(C)n[nH]c21` [Example 2, (E)-ethyl 6-(3,4-difluorobenzoyl)-3,4,4-trimethyl-1,4,5,6-tetrahydropyrazolo[3,4-d]azepine-8-carboxylate] it is less than 0.2 µM.
`CC(C)OC(=O)C1=CN(C(=O)c2cccc(OCCN3CCOCC3)c2)CC(C)(C)c2c(C(F)(F)F)n[nH]c21` [Example 7]: the EC50 lay within 0.2 to 1 µM.
The figure for `CCOC(=O)C1=CN(C(=O)c2cccc(F)c2)CC(C)(C)c2cn[nH]c21` [Example 49] is 0.2 to 1 µM; for `CC(C)NC(=O)C1=CN(C(=O)c2ccc(OCCN3CCOCC3)cc2)CC(C)(C)c2c(C(F)(F)F)n[nH]c21` [Example 8] it is less than 0.2 µM.
As for `CC(=O)c1n[nH]c2c1C(C)(C)CN(C(=O)c1ccc(F)c(F)c1)C=C2C(=O)OC(C)C` [Example 10], the EC50 was less than 0.2 µM.
The figure for `CC(C)Cc1n[nH]c2c1C(C)(C)CN(C(=O)c1cccc(F)c1)C=C2C(=O)OC(C)C` [Example 25] is less than 0.2 µM; for `CCCCc1n[nH]c2c1C(C)(C)CN(C(=O)c1cccc(F)c1)C=C2C(=O)OC(C)C` [Example 33] it is less than 0.2 µM.
The figure for `CCOC(=O)C1=CN(C(=O)c2ccc(F)c(F)c2)CC(C)(C)c2c(CC)n[nH]c21` [Example 41] is less than 0.2 µM; for `CCCCc1n[nH]c2c1C(C)(C)CN(C(=O)c1ccc(F)c(F)c1)C=C2C(=O)OC(C)C` [Example 31] it is less than 0.2 µM; for `CCCc1n[nH]c2c1C(C)(C)CN(C(=O)c1ccncc1)C=C2C(=O)OC(C)C` [Example 20] it is 0.2 to 1 µM.
For the compound `CCOC(=O)C1=CN(C(=O)c2ccc(F)c(F)c2)CC(C)(C)c2cn[nH]c21` [Example 4, (E)-ethyl 6-(3,4-difluorobenzoyl)-4,4-dimethyl-1,4,5,6-tetrahydropyrazolo[3,4-d]azepine-8-carboxylate], the EC50 was in the range of 0.2 to 1 µM.
With `CC(C)OC(=O)C1=CN(C(=O)c2cccc(F)c2)CC(C)(C)c2c(C(F)(F)F)n[nH]c21` [Example 23], the EC50 was less than 0.2 µM.
Turning to `CCOC(=O)C1=CN(C(=O)c2cc3ccccc3s2)CC(C)(C)c2cn[nH]c21` [Example 44], the EC50 was 0.2 to 1 µM.
As for `CCCc1n[nH]c2c1C(C)(C)CN(C(=O)c1ccc(C(F)(F)F)nc1)C=C2C(=O)OC(C)C` [Example 21], the EC50 is 0.2 to 1 µM.
The figure for `CCOC(=O)C1=CN(C(=O)c2ccc(F)c(F)c2)CC(C)(C)c2c(-c3ccc(F)cc3)n[nH]c21` [Example 3, (E)-ethyl 6-(3,4-difluorobenzoyl)-3-(4-fluorophenyl)-4,4-dimethyl-1,4,5,6-tetrahydropyrazolo[3,4-d]azepine-8-carboxylate] is less than 0.2 µM.
The figure for `CCOC(=O)C1=CN(C(=O)C2CCCCC2)CC(C)(C)c2cn[nH]c21` [Example 48] is 1 to 10 µM; for `CCCCc1n[nH]c2c1C(C)(C)CN(C(=O)C1CCOCC1)C=C2C(=O)OC(C)C` [Example 32] it is 0.2 to 1 µM.
As for `CCCc1n[nH]c2c1C(C)(C)CN(C(=O)C1CCCCC1)C=C2C(=O)OC(C)C` [Example 35], the EC50 was less than 0.2 µM.
Take `CC(C)OC(=O)C1=CN(C(=O)c2cc(F)c(F)cc2Cl)CC(C)(C)c2c(C(F)(F)F)n[nH]c21` [Example 11]: the EC50 was less than 0.2 µM.
For the compound `CCCc1n[nH]c2c1C(C)(C)CN(C(=O)c1ccc(F)c(F)c1)C=C2C(=O)OC(C)C` [Example 38], the EC50 was less than 0.2 µM.
Turning to `CC(C)OC(=O)C1=CN(C(=O)c2ccc(F)c(F)c2)CC(C)(C)c2c(C(F)(F)F)n[nH]c21` [Example 24], the EC50 is less than 0.2 µM.
For `CC(C)OC(=O)C1=CN(C(=O)N2CCN(C)CC2)CC(C)(C)c2c(C(F)(F)F)n[nH]c21` [Example 22], the EC50 was 0.2 to 1 µM.
On to `COCCc1n[nH]c2c1C(C)(C)CN(C(=O)c1ccc(F)c(F)c1)C=C2C(=O)OC(C)C` [Example 28], for which the EC50 is less than 0.2 µM.
The figure for `CCCc1n[nH]c2c1C(C)(C)CN(C(=O)c1cccc(F)c1)C=C2C(=O)OC(C)C` [Example 37] is less than 0.2 µM; for `CC(C)OC(=O)C1=CN(C(=O)c2ccc(F)c(CN3CCOCC3)c2)CC(C)(C)c2c(C(F)(F)F)n[nH]c21` [Example 12] it is less than 0.2 µM; for `CC(C)Cc1n[nH]c2c1C(C)(C)CN(C(=O)c1ccc(F)c(F)c1)C=C2C(=O)OC(C)C` [Example 26] it is less than 0.2 µM.
In the case of `CC(C)OC(=O)C1=CN(C(=O)c2ccc(F)c(OCCN3CCOCC3)c2)CC(C)(C)c2c(C(F)(F)F)n[nH]c21` [Example 6], the EC50 is 0.2 to 1 µM.
On to `CCCc1n[nH]c2c1C(C)(C)CN(C(=O)c1cccnc1)C=C2C(=O)OC(C)C` [Example 18], for which the EC50 lay in the range of 0.2 to 1 µM.
For `CC(C)OC(=O)C1=CN(C(=O)c2ccc(F)cc2F)CC(C)(C)c2c(C(F)(F)F)n[nH]c21` [Example 16], the EC50 is less than 0.2 µM.
As to `CCCCc1n[nH]c2c1C(C)(C)CN(C(=O)N1CCOCC1)C=C2C(=O)OC(C)C` [Example 29], the EC50 was less than 0.2 µM.
The figure for `CCCc1n[nH]c2c1C(C)(C)CN(C(=O)N1CCOCC1)C=C2C(=O)OC(C)C` [Example 34] is 0.2 to 1 µM.
As to `CCCCc1n[nH]c2c1C(C)(C)CN(C(=O)c1ccc(F)c(F)c1)C=C2C(=O)OCC` [Example 39], the EC50 was less than 0.2 µM.
With `CC(C)OC(=O)C1=CN(C(=O)c2ccc(F)cc2)CC(C)(C)c2c(C(F)(F)F)n[nH]c21` [Example 17], the EC50 was less than 0.2 µM.
The figure for `COCCc1n[nH]c2c1C(C)(C)CN(C(=O)c1cccc(F)c1)C=C2C(=O)OC(C)C` [Example 27] is less than 0.2 µM; for `CCCc1n[nH]c2c1C(C)(C)CN(C(=O)c1ccc(F)c(F)c1)C=C2C(=O)OCC` [Example 40] it is less than 0.2 µM.
As for `CC(C)OC(=O)C1=CN(C(=O)c2ccc(OCCCN3CCOCC3)cc2)CC(C)(C)c2c(C(F)(F)F)n[nH]c21` [Example 9], the EC50 is less than 0.2 µM.
`CC(C)OC(=O)C1=CN(C(=O)c2ccc(Cl)c(Cl)c2)CC(C)(C)c2cn[nH]c21` [Example 42]: the EC50 is less than 0.2 µM.
In the case of `CCOC(=O)C1=CN(C(=O)c2ccc3ccccc3c2)CC(C)(C)c2cn[nH]c21` [Example 43], the concentration for a half-maximal effect (EC50) was less than 0.2 µM.
Consider `CCCc1n[nH]c2c1C(C)(C)CN(C(=O)C1CCOCC1)C=C2C(=O)OC(C)C` [Example 36], for which the EC50 fell in the range of 0.2 to 1 µM.
The figure for `CCCCc1n[nH]c2c1C(C)(C)CN(C(=O)C1CCCCC1)C=C2C(=O)OC(C)C` [Example 30] is 0.2 to 1 µM; for `CCOC(=O)C1=CN(C(=O)c2ccc3c(c2)OC(F)(F)O3)CC(C)(C)c2cn[nH]c21` [Example 47] it is 1 to 10 µM; for `CCOC(=O)C1=CN(C(=O)c2ccc(F)c(F)c2)CC(C)(C)c2c(C(C)C)n[nH]c21` [Example 5] it is less than 0.2 µM.
As for `CC(C)OC(=O)C1=CN(C(=O)c2ccc(F)c(F)c2)CC(C)(C)c2cn[nH]c21` [Example 46], the EC50 lay within 0.2 to 1 µM.
